Data on 10 molecules can be found in patent publication US11873292B2, “Trans-indoline cyclopropylamine chemical compound, and method for preparation, pharmaceutical composition, and use thereof” (Shanghai Institute of Materia Medica, Chinese Academy of …, priority 2016, dated 2024).

One series addresses Human recombinant LSD1 (Homo sapiens (Human), UniProt O60341). The series is described as follows: LSD1 in vitro activity assay (LANCE Ultra LSD1 Histone H3-Lysine 4 Demethylase Assay). It is filed as biochemical. The following applies: LSD1 inhibition. (In general: TR-FRET usually uses a lanthanide donor and a delayed reading to cut background.)
Another series has as its target Human recombinant MAOA (Homo sapiens (Human), UniProt P21397). Kind of series: MAOA in vitro activity experiment (MAO-Glo). The format is biochemical.
A further series concerns the target human recombinant MAOB (Homo sapiens (Human), UniProt P27338). The series is described as follows: MAOB in vitro activity experiment (MAO-Glo). The format is biochemical.
The test system of series [1] is Leukemia cell line MV4-11. Kind of series: Growth-inhibitory activity by MTS method. It is filed as cell-based. The following applies: Homo sapiens, MV4-11 cells. An excerpt: MTS assay was used to detect the growth inhibitory effect of tested compounds on leukemia cell MV (4:11), the principle of which was that succinate dehydrogenase in mitochondria in living cells can reduce exogenous thiazole blue to insoluble Blue crystalline Formazan.
MATERIALS: Leukemia cell line MV4-11: pediatric acute lymphocytic leukemia, immunological double phenotype, AF4-MLL fusion t (4,11), is a cell growth inhibitory cell line of LSD1 inhibitor (Cancer cell. 2012, 17; 21(4): 473-487).
1. MV4-11 cells in the logarithmic growth phase were taken, accurately counted 16000 cells/mL, and the diluted cell solution was added to a 96-well plate at 90 μL per well.
2. Fresh medium was taken and sequentially added to a 96-well plate with cell fluid, 90 μL per well.
3. In the compound plate, the compound to be tested at a concentration of 10 mM and the positive compounds ORY-1001 and GSK2879552 were taken and subjected to a 3-fold concentration gradient dilution with DMSO, 8 points for each.
4. 2 μL of the diluted compound was separately added to a 96-well plate containing 98 μL of blank medium, and DMSO group was added with 2 μL of DMSO into 98 μL of blank medium, and mixed for use.
5. The compound homogeneously mixed with the medium was separately added to a 96-well plate in which cells were plated in triplicate, 20 μL per well, and well mixed. In the blank group, 200 μL of IMDM medium was added, and in the DMSO group, 180 μL of the cell-containing medium in DMSO diluted with the medium was added.
6. […]
7. After 10 days, MTS was added and the values were read after 2.5 h of incubation.
A general note: Formazan colour is commonly taken as a measure of viable cells.

Like-named read-outs stand apart in the source and are kept apart here.

Sequence of Human recombinant MAOA (P21397 whole entry): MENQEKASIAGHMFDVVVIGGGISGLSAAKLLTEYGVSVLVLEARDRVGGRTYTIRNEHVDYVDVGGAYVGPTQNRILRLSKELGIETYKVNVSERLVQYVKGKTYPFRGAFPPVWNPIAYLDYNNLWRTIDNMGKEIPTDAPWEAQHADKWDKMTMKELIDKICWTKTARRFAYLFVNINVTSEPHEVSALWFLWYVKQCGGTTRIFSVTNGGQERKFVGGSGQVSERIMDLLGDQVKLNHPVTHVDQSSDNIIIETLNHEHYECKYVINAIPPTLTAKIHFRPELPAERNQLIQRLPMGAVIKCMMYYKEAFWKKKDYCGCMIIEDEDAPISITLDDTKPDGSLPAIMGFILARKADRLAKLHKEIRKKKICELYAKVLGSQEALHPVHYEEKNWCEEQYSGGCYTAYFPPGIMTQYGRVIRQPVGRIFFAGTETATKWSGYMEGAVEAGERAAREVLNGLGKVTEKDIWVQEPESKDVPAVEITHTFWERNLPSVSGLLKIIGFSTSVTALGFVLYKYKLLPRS
Sequence of human recombinant MAOB (P27338 whole entry): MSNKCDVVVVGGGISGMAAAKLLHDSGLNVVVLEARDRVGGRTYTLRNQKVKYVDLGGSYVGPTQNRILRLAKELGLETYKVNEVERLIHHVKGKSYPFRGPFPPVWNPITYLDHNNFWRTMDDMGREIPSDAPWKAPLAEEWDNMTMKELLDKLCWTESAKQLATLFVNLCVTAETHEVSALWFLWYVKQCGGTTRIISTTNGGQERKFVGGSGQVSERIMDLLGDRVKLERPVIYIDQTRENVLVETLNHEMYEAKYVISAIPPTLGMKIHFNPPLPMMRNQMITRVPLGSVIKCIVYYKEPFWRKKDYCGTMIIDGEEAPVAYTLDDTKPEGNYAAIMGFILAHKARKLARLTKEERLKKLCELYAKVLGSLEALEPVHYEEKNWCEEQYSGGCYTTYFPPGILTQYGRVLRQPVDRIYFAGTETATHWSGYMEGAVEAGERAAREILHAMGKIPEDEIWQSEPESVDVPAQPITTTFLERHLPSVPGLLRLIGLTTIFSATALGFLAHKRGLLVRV

As for `N[C@@H]1C[C@H]1c1ccc2c(c1)CCN2S(=O)(=O)c1ccccc1` (relative stereo) [Compound A1, Trans-2-(1-(phenylsulfonyl)indolin-5-yl)cyclopropylamine], the melting point was in the range of 190 to 193 °C. The IC50 on Human recombinant LSD1 stood at 1790 ± 88.4 nM.
In turn, `CC(C)(C)OC(=O)N1CCC(CN[C@@H]2C[C@H]2c2ccc3c(c2)CCN3S(=O)(=O)c2ccccc2)CC1` (relative stereo) [Compound A27, Trans-tert-butyl 4-((2-(1-(phenylsulfonyl)indolin-5-yl)cyclopropylamino)methyl)piperidine-1-carboxylate] gave a melting point of 60 to 61 °C. Besides, the IC50 on Human recombinant LSD1 was determined as 71.3 ± 4.3 nM. In addition, the IC50 at Human recombinant MAOA is above 100000 nM. Also, the IC50 at human recombinant MAOB was above 100000 nM.
`O=C(OCc1ccccc1)N1CCC(CN[C@@H]2C[C@H]2c2ccc3c(c2)CCN3S(=O)(=O)c2ccccc2)CC1` (relative stereo) [Compound A28, Trans-benzyl 4-((2-(1-(phenylsulfonyl)indolin-5-yl)cyclopropylamino)methyl)piperidine-1-carboxylate] came in with a melting point of 90 to 92 °C. Moreover, the IC50 on Human recombinant LSD1 stood at 265 ± 80.8 nM.
In the case of `CC(C)(C)OC(=O)N1CCC(C(=O)N[C@@H]2C[C@H]2c2ccc3c(c2)CCN3S(=O)(=O)c2ccccc2)CC1` (relative stereo) [Compound A29, Trans-tert-butyl 4-(2-(1-(phenylsulfonyl)indolin-5-yl)cyclopropylcarbamoyl)piperidine-1-carboxylate], the melting point is 146 to 148 °C. For the same molecule, at Human recombinant LSD1, the IC50 was found to be 1690 ± 449 nM.
In turn, `O=S(=O)(c1ccc(C(F)(F)F)cc1)N1CCc2cc([C@@H]3C[C@H]3NCC3CCNCC3)ccc21` (relative stereo) [Compound A34, trans-N-(piperidin-4-ylmethyl)-2-(1-(4-(trifluoromethyl)benzenesulfonyl)indolin-5-yl)cyclopropylamine] showed a melting point of 217 to 221 °C. In addition, at Human recombinant LSD1, the IC50 was 43.3 ± 5.09 nM. For the same molecule, the IC50 at Human recombinant MAOA is above 100000 nM. For the same molecule, on human recombinant MAOB, the IC50 was above 100000 nM.
On to `CCCS(=O)(=O)N1CCc2cc([C@@H]3C[C@H]3NCC3CCNCC3)ccc21` (relative stereo) [Compound A41, trans-N-(piperidin-4-ylmethyl)-2-(1-(propylsulfonyl)indolin-5-yl)cyclopropylamine], for which the melting point lay within 187 to 191 °C. The IC50 on Human recombinant MAOA is above 100000 nM. For the same molecule, the IC50 on human recombinant MAOB is above 100000 nM.
Regarding `O=C(C1CCCCC1)N1CCc2cc([C@@H]3C[C@H]3NCC3CCNCC3)ccc21` (relative stereo) [Compound A59, Trans-cyclohexyl (5-(2-(piperidin-4-ylmethylamino)cyclopropyl)indolin-1-yl)methanone], the melting point fell in the range of 166 to 168 °C.
`CC(C)(C)OC(=O)c1ccc(CN2CCC(CNC3CC3c3ccc4c(c3)CCN4S(=O)(=O)c3ccccc3)CC2)cc1` (stereo not drawn) [Compound A25, Trans-tert-butyl 4-((4-(2-(1-(phenylsulfonyl))indolin-5-yl)cyclopropylamino)methyl)piperidin-1-yl)methyl) benzoate] gave a melting point of 62 to 65 °C. In addition, the IC50 at Human recombinant LSD1 amounted to 534 ± 384 nM.
Taken in the same sequence, the figures for `O=C(O)c1ccc(CN2CCC(CNC3CC3c3ccc4c(c3)CCN4S(=O)(=O)c3ccccc3)CC2)cc1` (stereo not drawn) [Compound A26, Trans-4-((4-(2-(1-(phenylsulfonyl))indolin-5-yl)cyclopropylamino)methyl)piperidin-1-yl) methyl)benzoic acid] were 190 to 192 °C and 461 ± 31.9 nM.
`O=C(O)c1ccc(CN2CCC(CN[C@@H]3C[C@H]3c3ccccc3)CC2)cc1` [GSK2879552, GSK-2879552, reference compound]: the IC50 was 404 ± 30.8 nM on Human recombinant LSD1; above 100000 nM on Human recombinant MAOA; above 100000 nM at human recombinant MAOB; above 20000 nM in series [1] (3 D, read-out: MTS 3 D); 1810 nM in series [1] (10 D, read-out: MTS 10 D).

As a reminder, the melting point is the temperature of the solid-liquid transition.
